Assay results from patent US7229630B2, “Stabilized formulations of alpha adrenergic receptor antagonists and the uses thereof” (Novalar Pharmaceuticals, Inc., priority 2002, dated 2007).
Structures can show the parent of a compound that is named as a salt.

Assays:
human subjects = assay: Reversal of local anesthesia (polocaine with levonordefrin) by LARA vs saline, bilateral injection; assay type: in vivo; settings: three subjects, 1.6 ml of 0.05 mg/ml phentolamine mesylate
Description: An injection of the physiological saline vehicle (without phentolamine mesylate) served as the control. […] This was followed by injection of the phentolamine mesylate containing local anesthetic reversal agent (LARA) into one side of the oral cavity, and injection of the saline vehicle (control) solution into the opposite side of the oral cavity. The time to reversal of the local anesthetic effect on both sides was then recorded to determine whether there is a difference between the two sides.
The local anesthetic used was 2% polocaine (mepivacaine hydrochloride) with levonordefrin (1:20,000=0.05 mg/ml) (levonordefrin injection, USP) (Astra USA, Inc., Westborough, Mass. 01581). Levonordefrin is a sympathomimetic amine with a pharmacological profile similar to that of epinephrine, but with a lower potency.
Three healthy, male human subjects, age 34–50, volunteered to have local anesthetic injected in the mouth bilaterally under the lip in an easily repeatable location. The exact time of each injection was recorded. The position chosen was above (apical) the prominence of the root of the upper cuspid teeth. This is a common site selected to numb the cuspids, lateral incisors and upper lip. The volume of the local anesthetic injected was 1.7+0.1 ml on each side of the mouth. […]

[1] = Narrow-range pH-stability profiling at 60° C. (HPLC); assay type: physicochemical; settings: 50 mM sodium phosphate, zero-order rate constant vs pH
Description: (§1) The drug is monitored at a detection wavelength of 232 nm.
All samples were stored in the dark. […] All samples were analyzed without dilution.
The phosphate buffers were prepared as previously described. […] Measurement of sample pH was done after HPLC analysis.
In order to precisely define the most favorable pH, a stronger stressing condition was needed to generate a greater extent of degradation in the lower pH region. For this study, the incubation condition was shifted from 40° C. to 60° C. […] Since the extent of degradation after fourteen (14) days was still less than twenty percent (20%) in most samples, zero-order rate kinetics was used for the degradation curves (concentration versus time). The calculated rate constant was plotted against pH to provide the narrow-range pH-stability profile.

[2] = Effect of buffer anion on stability at 60° C. (HPLC); assay type: physicochemical
Description: as §1
Tightly sealed glass vials containing the test solutions were placed in an oven at 40° C. or 60° C. All samples were stored in the dark. Aliquots were removed at designated time points for HPLC analysis and pH measurement. All samples were analyzed without dilution.
The test buffers included 50 mM sodium phosphate, 50 mM sodium acetate, 50 mM sodium lactate, 50 mM sodium citrate, and 50 mM sodium succinate buffers at pH 3.
The phosphate and acetate buffers were prepared as described above. The citrate buffer was prepared by adding 9.60 g of citric acid to water, adjusting the pH with 2 N NaOH to pH 3, and bringing the volume to 1 L in a volumetric flask. The lactate buffer was prepared by adding 2.25 g of lactic acid to water, adjusting the pH with 2 N NaOH to pH 3, and bringing the volume to 1 L in a volumetric flask. The succinate buffer was prepared by adding 2.95 g succinic acid to water, adjusting the pH with 2 N NaOH to pH 3, and bringing the volume to 1 L in a volumetric flask.
Measurements of sample pH were done after HPLC analysis.

[3] = tested on: healthy adult volunteer subjects; assay: Dose range study of reversal of local anesthesia after mandibular nerve block; assay type: in vivo, human
Excerpt: The objectives of this study were to evaluate the safety and efficacy of a range of doses of phentolamine in reversing local anesthesia after a mandibular nerve block. […] Subjects palpated their lower lip, chin, tongue, and teeth every five minutes for the next five hours after injections.

[4] = tested on: healthy adult volunteer subjects; assay: Dose range study of reversal of local anesthesia after maxillary infiltration; assay type: in vivo, human
Description: Four groups of eight healthy adult volunteer subjects were given an infiltration of the lateral incisor using one 1.8 ml cartridge of lidocaine 2% with epinephrine 1:100,000. […] Subjects palpated their upper lip, nose, and teeth every five minutes for the next five hours after injections.

[5] = 50 mM sodium Acetate pH 3.0, 60° C., Day 0
[6] = 50 mM sodium Acetate pH 3.0, 60° C., Day 2
[7] = 50 mM sodium Acetate pH 3.0, 60° C., Day 7
[8] = 50 mM sodium Acetate pH 3.0, 60° C., Day 14
[9] = 50 mM sodium Citrate pH 3.0, 60° C., Day 0
[10] = 50 mM sodium Citrate pH 3.0, 60° C., Day 2
[11] = 50 mM sodium Citrate pH 3.0, 60° C., Day 7
[12] = 50 mM sodium Citrate pH 3.0, 60° C., Day 14
[13] = 50 mM sodium Lactate pH 3.0, 60° C., Day 0
[14] = 50 mM sodium Lactate pH 3.0, 60° C., Day 2
[15] = 50 mM sodium Lactate pH 3.0, 60° C., Day 7
[16] = 50 mM sodium Lactate pH 3.0, 60° C., Day 14
[17] = 50 mM sodium Phosphate pH 3.0, 60° C., Day 0
[18] = 50 mM sodium Phosphate pH 3.0, 60° C., Day 2
[19] = 50 mM sodium Phosphate pH 3.0, 60° C., Day 7
[20] = 50 mM sodium Phosphate pH 3.0, 60° C., Day 14
[21] = 50 mM sodium Succinate pH 3.0, 60° C., Day 0
[22] = 50 mM sodium Succinate pH 3.0, 60° C., Day 2
[23] = 50 mM sodium Succinate pH 3.0, 60° C., Day 7
[24] = 50 mM sodium Succinate pH 3.0, 60° C., Day 14

## Cc1ccc(N(CC2=NCCN2)c2cccc(O)c2)cc1 [Phentolamine Mesylate, phentolamine mesylate]
Human subjects
  side-effects: no side-effects of any kind were noted
[1]
  pH at which most stable: 3.5
[2]; [5]
  Phentolamine Concentration: 96 µg/mL
  Phentolamine Purity: 100 % peak area
[2]; [6]
  Phentolamine Concentration: 95 µg/mL
  Phentolamine Purity: 98 % peak area
[2]; [7]
  Phentolamine Concentration: 94 µg/mL
  Phentolamine Purity: 97 % peak area
[2]; [8]
  Phentolamine Concentration: 89 µg/mL
  Phentolamine Purity: 96 % peak area
[2]; [9]
  Phentolamine Concentration: 93 µg/mL
  Phentolamine Purity: 97 % peak area
[2]; [10]
  Phentolamine Concentration: 87 µg/mL
  Phentolamine Purity: 91 % peak area
[2]; [11]
  Phentolamine Concentration: 73 µg/mL
  Phentolamine Purity: 77 % peak area
[2]; [12]
  Phentolamine Concentration: 62 µg/mL
  Phentolamine Purity: 69 % peak area
[2]; [13]
  Phentolamine Concentration: 97 µg/mL
  Phentolamine Purity: 99 % peak area
[2]; [14]
  Phentolamine Concentration: 94 µg/mL
  Phentolamine Purity: 98 % peak area
[2]; [15]
  Phentolamine Concentration: 91 µg/mL
  Phentolamine Purity: 94 % peak area
[2]; [16]
  Phentolamine Concentration: 83 µg/mL
  Phentolamine Purity: 89 % peak area
[2]; [17]
  Phentolamine Concentration: 96 µg/mL
  Phentolamine Purity: 99 % peak area
[2]; [18]
  Phentolamine Concentration: 93 µg/mL
  Phentolamine Purity: 97 % peak area
[2]; [19]
  Phentolamine Concentration: 91 µg/mL
  Phentolamine Purity: 95 % peak area
[2]; [20]
  Phentolamine Concentration: 84 µg/mL
  Phentolamine Purity: 91 % peak area
[2]; [21]
  Phentolamine Concentration: 96 µg/mL
  Phentolamine Purity: 99 % peak area
[2]; [22]
  Phentolamine Concentration: 88 µg/mL
  Phentolamine Purity: 92 % peak area
[2]; [23]
  Phentolamine Concentration: 74 µg/mL
  Phentolamine Purity: 78 % peak area
[2]; [24]
  Phentolamine Concentration: 64 µg/mL
  Phentolamine Purity: 74 % peak area
[2]; pH 3, 60° C., 14 days
  rank of buffer preference based on the amount of phentolamine recovered at the end of the study: sodium acetate>no buffer (water with pH adjusted to pH 3)>sodium phosphate>sodium lactate>sodium succinate>sodium citrate
[3]; 0.02 mg, 0.06 mg, 0.4 mg in 1.8 ml
  electrocardiogram: no abnormalities
[3]; 0.02 mg, 0.06 mg, 0.4 mg in 1.8 ml, vs placebo
  Adverse events: few and no differences were noted between the active and placebo groups
[3]; all doses tested (0.02 mg, 0.06 mg, 0.4 mg in 1.8 ml), 60 minutes after lidocaine 2% with epinephrine 1:100,000, vs saline, each measured tissue
  duration of anesthesia: significantly (p<0.05) reduced
[4]; 0.02 mg, 0.08 mg, 0.4 mg in 1.8 ml
  electrocardiogram: no abnormalities
[4]; 0.02 mg, 0.08 mg, 0.4 mg in 1.8 ml, vs placebo
  Adverse events: few and no differences were noted between the active and placebo groups
[4]; all doses tested (0.02 mg, 0.08 mg, 0.4 mg in 1.8 ml), 40 minutes after lidocaine 2% with epinephrine 1:100,000, vs saline, each measured tissue
  duration of anesthesia: significantly (p<0.01) reduced
